For one data set, the system named is rat QT and QTc intervals. The data set is described as follows: Cardio toxicity: QT prolongation, ECG in anesthetized rats. It counts as in vivo. An excerpt:
The QT interval (time from beginning of the QRS complex and to the end of the T wave) of the ECG is a measure of the duration of ventricular depolarization and repolarization. When ventricular repolarization is delayed and the QT interval is prolonged, there is an increased risk of ventricular tachyarrhythmia, including torsade de points (potentially fatal polymorphic ventricular tachycardia). As the QT interval has an inverse relationship to heart rate, the measured QT intervals are generally corrected for heart rate in order to determine whether they are prolonged relative to the baseline.
The initial evaluation of cardiac safety by ECG measurements focuses on QTc duration of MWL001 50 mg/ml concentration.
Male Sprague-Dawley rats (280-300 g of weight) were used for electrocardiographic measurements at basal conditions as well as medicated with QND and MWL. […] Electrocardiograms were recorded using disk electrodes fitted subcutaneously near the right and left axial regions and at the xiphoid cartilage and secured by surgical clips for standard Lead II recording. […] All of the data was recorded (AdInstruments PowerLab 16/30, Australia) for off line analysis.
Heart rate (RR interval), QT interval and QTc (corrected QT interval) were calculated by ECG analysis module in the LabChart 7.2.1 software and manually screened by trained technicians. […]

In data set [1] the test system is TNBS-induced ulcerative colitis. The experiment in a line: TNBS-induced colitis (ulcerative colitis) in rats. Format: in vivo. As to the method: Exemplary conjugates were tested for the effect on inflammatory bowel disease IBD (ulcerative colitis) in rats.
Briefly, ulcerative colitis was induced by tri-nitrobenzene sulfunic acid (TNBS) as described in the literature. Rats were divided into 4 groups, (−) sham (healthy), (+) control ulcerative colitis (UC, not treated), UC treated with the tested conjugate (25 mg/kg), and UC treated with 5-amino salicylic acid (5-ASA 25 mg/kg). The tested conjugate and 5-ASA were administered rectally during all the period of the experiment. At the end of the experiment animals were sacrificed and the colon was isolated to test the severity of the inflammation. The severity of the inflammation was tested by measurement of the myeloperoxidase activity (MPO activity) in the inflamed area of the colon.

Data set [2] has as its system oxazolone-induced allergic dermatitis. The experiment in a line: Murine oxazolone-induced allergic dermatitis. It counts as in vivo, mice. An excerpt:
An allergic form of contact dermatitis can be induced in mice by repeated epicutaneous application of the chemical sensitizer oxazolone. This leads to local augmented thickness and weight increase of the skin area where the rechallenge was applied; from the histological point of view, oxazolone-induced dermatitis is characterized by severe mononuclear cell infiltration of the dermis with in situ production of the type 1 proinflammatory cytokines TNF-alpha, IL-1alpha and IFN-gamma. These well-defined mechanistic pathways of inflammatory skin damage make oxazolone-dermatitis a useful in vivo tool for pathogenic studies and a pharmacodynamic parameter to screen drugs of potential utility in counteracting type 1 cytokine dependent cutaneous immunoinflammatory responses such as those found in some forms of bullous disorders, cutaneous vasculitis and psoriasis.
The efficacy of MWL001 in the treatment of Murine oxazolone-induced allergic dermatitis was evaluated. MWL001 and DEX were administered one hour after the second challenge with oxazolone.
The mice were sensitized on day 0 by a single application of 10 ∞l of 2% oxazolone (Sigma Chimica, Milan, Italy) in ethanol to the inner and outer surface of the left ear. The disease was elicited by local rechallenge on day 7 with 15% oxazolone. The right ear was treated with the vehicle of oxazolone (acetone). Eighteen hours after […] the mice are sacrificed under ether anesthesia and both the right and left ears were excised.
Inflammation was assessed as the percentage increase in ear thickness and/or ear weight in the treated left ear vs. the vehicle-treated right ear. Ear thickness was measured with a digital calliper. The extent of the inflammation was quantified as follows: ear swelling (%)=100×(a−b)/b, where a is thickness/weight of the left (treated) ear and b is the thickness/weight of the right (untreated) ear.
Ear tissue samples were fixed with 4% formaldehyde in phosphate-buffered saline (PBS) and embedded in paraffin. Thereafter, 6-μm sections were deparaffinized with xylene, stained with hematoxylin-eosin and observed with a Zeiss microscope (Jena, Germany).

Data set [3] can be described thus: Acute intraperitoneal (IP) toxicity in the mouse. Particulars: both sexes, in vivo, single IP injection, male and female ICR mice, read-out: MTD (Maximum Tolerated Dose). Here is the method:
The objective of this study was to determine the MTD (Maximum Tolerated Dose) and/or assess the potential toxic effects in terms of the MFD (Maximum Feasible Dose) following an acute intraperitoneal (IP) injection of the Test Item MWL002 (Batch No.: 201109) to male and female ICR mice, in consideration of its intended use as an anti-inflammatory and pain relief agent.
MWL002 (Batch No.: 201109) was injected at two dose levels of 1000 (corresponding to the MFD) and 200 mg/kg to two groups consisting of three male and three female ICR mice per group, by a single intraperitoneal (IP) injection. An additional equally-sized group was injected with vehicle and served as the Control group. Dosing was sequential using three male and three female mice per step at 14 days interval. The Test Item or Vehicle Control Dosing Solutions were freshly prepared by the Testing Facility on each day of dosing, by diluting the Test Item or Vehicle Control with Physiological Saline according to the appropriate dose level and a constant volume dosage of 4 ml/kg.

[4] abbreviates: eighteen hours after sensitization, given one hour after second oxazolone challenge.

`CCC=CCC=CCC=CCC=CCC=CCC=CCCC(=O)N1CC(O)CC1C(=O)O` (stereo not drawn) [MWL001]: the cardiotoxic effect entry with rat QT and QTc intervals (high doses, short term of 2-3 hr, compared to Quinidine) is given as “no cardiotoxic effect”. The “prolongation of the QTc interval” value with rat QT and QTc intervals (i.v. 50-166 mg/kg, two hr period after injection) is recorded as “did not result in prolongation”. Besides, the body weight entry in data set [1] (UC rats, throughout assay period) is given as “no decrease”. Further, the “MPO activity (severity index)” value in data set [1] (rectal, 50 mg/kg as printed, compared to 5-ASA, inflamed colon) is “significant decrease”. Further, the “colon morphology and inflammation signs (images)” value in data set [1] (ulcerated colon segment, compared to non-treated or 5-ASA treated) is “normal clear anatomic morphology and a significant decrease in inflammation signs”. Moreover, in data set [2] (setting [4]), the ear thickness result is listed as “decreased ear thickness” and the ear weight result is reported as “decreased ear weight”. Also, the “histology: ear thickness and inflammatory cells in epidermis and dermis” value in data set [2] (hematoxylin and eosin stained sections) is reported as “markedly reduced”.
In general, MTD refers to the highest dose tested that stayed within the study's limit of toxicity. As for `CC/C=C\C/C=C\C/C=C\C/C=C\C/C=C\C/C=C\CCC(=O)NCCS(=O)(=O)O` [MWL002, N-docosa-4,7,10,13,16,19-hexaenoyl-taurine], the maximal tolerated dose (MTD) in data set [3] was 200 to 1000 mg/kg.

The values are drawn from patent publication US20130158070A1, “CONJUGATES OF POLYUNSATURATED FATTY ACIDS AND AMINE-CONTAINING COMPOUNDS AND USES THEREOF” (priority 2010, published 2013).
